This passage reports AC50 results from ChEMBL document CHEMBL5291721, “A preclinical secondary pharmacology resource illuminates target-adverse drug reaction associations of marketed drugs” (Nat Commun, 2023).

In test [1] the target is 5-hydroxytryptamine receptor 2B (Homo sapiens, UniProt P41595). Type of test: functional, cell-based.
Test [2] deals with Delta-type opioid receptor (Homo sapiens, UniProt P41143).
Test [3] deals with T1, Prostaglandin G/H synthase 1 (Rattus norvegicus, UniProt Q63921).
T1 sequence (Q63921 whole entry): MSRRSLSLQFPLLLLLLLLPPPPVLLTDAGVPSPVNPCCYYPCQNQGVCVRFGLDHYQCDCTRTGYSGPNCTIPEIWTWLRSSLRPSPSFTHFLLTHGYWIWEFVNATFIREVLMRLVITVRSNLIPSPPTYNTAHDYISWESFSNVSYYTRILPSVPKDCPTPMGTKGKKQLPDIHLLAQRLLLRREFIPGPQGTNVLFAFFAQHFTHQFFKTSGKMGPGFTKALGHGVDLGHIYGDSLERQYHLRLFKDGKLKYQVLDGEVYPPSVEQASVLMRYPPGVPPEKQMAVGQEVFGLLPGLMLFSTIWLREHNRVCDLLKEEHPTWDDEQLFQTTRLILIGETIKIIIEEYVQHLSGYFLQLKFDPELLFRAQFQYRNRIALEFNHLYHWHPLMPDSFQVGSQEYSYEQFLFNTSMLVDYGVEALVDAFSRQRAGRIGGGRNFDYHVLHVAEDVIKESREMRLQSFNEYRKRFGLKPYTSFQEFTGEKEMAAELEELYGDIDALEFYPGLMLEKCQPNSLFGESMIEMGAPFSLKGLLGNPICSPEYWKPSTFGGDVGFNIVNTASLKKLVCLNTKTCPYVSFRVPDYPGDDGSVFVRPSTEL
Type of test: functional.

The target of test [4] is T2, 5-hydroxytryptamine receptor 3A (Homo sapiens, UniProt P46098).
T2 sequence (P46098 whole entry): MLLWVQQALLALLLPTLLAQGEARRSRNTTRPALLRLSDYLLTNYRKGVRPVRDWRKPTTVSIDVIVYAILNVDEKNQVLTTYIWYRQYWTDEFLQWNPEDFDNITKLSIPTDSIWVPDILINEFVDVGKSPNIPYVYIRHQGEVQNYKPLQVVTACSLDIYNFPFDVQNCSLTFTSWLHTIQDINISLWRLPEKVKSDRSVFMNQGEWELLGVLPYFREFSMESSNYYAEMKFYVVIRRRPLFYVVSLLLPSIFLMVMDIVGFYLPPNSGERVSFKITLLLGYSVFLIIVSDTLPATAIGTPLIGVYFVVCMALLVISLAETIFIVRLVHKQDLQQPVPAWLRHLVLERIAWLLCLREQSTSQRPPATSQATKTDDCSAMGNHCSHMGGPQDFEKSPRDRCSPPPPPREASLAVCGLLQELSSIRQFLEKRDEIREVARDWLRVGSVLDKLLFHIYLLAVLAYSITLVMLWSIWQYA
Type of test: functional.

Test [5] deals with Growth hormone secretagogue receptor type 1 (Homo sapiens, UniProt Q92847).
Test [6] has as its target T3, Amine oxidase [flavin-containing] A (Homo sapiens, UniProt P21397).
T3 sequence (P21397 whole entry): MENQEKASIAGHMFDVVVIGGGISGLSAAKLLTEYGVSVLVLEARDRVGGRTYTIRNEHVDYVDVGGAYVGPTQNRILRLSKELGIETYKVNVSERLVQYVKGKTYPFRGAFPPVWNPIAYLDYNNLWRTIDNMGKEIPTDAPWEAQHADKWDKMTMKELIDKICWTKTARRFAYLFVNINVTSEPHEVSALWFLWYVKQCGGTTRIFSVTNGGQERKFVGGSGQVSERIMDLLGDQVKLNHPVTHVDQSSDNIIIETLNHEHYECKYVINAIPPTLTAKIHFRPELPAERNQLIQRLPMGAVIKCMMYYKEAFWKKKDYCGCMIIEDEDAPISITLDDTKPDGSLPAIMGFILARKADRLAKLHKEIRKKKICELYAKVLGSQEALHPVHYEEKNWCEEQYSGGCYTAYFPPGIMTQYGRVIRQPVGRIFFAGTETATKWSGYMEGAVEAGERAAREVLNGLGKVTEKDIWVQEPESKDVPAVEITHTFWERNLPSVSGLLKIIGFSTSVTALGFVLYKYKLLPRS
Type of test: functional.

For test [7], the target named is T4, 5-hydroxytryptamine receptor 2C (Homo sapiens, UniProt P28335).
T4 sequence (P28335 whole entry): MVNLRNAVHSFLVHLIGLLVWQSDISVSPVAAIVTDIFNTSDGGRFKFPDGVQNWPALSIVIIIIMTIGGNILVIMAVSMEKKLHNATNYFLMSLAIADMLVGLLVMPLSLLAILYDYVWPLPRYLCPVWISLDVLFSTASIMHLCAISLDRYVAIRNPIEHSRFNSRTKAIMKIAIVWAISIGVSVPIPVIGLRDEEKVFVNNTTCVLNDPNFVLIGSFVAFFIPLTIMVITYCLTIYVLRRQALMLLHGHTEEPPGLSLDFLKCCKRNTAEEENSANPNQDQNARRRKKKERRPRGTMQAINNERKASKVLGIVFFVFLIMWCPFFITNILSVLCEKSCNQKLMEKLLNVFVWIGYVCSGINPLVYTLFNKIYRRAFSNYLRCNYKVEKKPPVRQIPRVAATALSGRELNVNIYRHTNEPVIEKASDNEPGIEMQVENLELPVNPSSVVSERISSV

Test [8] deals with Gamma-aminobutyric acid receptor subunit alpha-1 (Rattus norvegicus, UniProt P62813). Type of test: functional.
In test [9] the target is T5, Alpha-2C adrenergic receptor (Homo sapiens, UniProt P18825).
T5 sequence (P18825 whole entry): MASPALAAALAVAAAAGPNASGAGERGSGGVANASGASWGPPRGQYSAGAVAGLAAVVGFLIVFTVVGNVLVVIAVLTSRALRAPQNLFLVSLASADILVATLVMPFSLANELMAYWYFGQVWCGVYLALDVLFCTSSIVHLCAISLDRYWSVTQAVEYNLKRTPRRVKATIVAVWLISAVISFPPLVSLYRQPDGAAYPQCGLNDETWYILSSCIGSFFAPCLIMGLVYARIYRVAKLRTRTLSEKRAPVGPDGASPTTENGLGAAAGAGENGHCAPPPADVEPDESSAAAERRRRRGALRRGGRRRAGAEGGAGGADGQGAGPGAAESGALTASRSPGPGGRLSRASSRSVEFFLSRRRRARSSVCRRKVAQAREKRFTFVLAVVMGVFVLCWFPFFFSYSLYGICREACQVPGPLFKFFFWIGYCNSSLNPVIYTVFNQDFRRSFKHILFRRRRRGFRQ
Type of test: functional.

In test [10] the target is 3',5'-cyclic-AMP phosphodiesterase 4D (Homo sapiens, UniProt Q08499). Type of test: functional.
Note: assay procedure not described here.

3',5'-cyclic-AMP phosphodiesterase 4D, sequence (Q08499 whole entry): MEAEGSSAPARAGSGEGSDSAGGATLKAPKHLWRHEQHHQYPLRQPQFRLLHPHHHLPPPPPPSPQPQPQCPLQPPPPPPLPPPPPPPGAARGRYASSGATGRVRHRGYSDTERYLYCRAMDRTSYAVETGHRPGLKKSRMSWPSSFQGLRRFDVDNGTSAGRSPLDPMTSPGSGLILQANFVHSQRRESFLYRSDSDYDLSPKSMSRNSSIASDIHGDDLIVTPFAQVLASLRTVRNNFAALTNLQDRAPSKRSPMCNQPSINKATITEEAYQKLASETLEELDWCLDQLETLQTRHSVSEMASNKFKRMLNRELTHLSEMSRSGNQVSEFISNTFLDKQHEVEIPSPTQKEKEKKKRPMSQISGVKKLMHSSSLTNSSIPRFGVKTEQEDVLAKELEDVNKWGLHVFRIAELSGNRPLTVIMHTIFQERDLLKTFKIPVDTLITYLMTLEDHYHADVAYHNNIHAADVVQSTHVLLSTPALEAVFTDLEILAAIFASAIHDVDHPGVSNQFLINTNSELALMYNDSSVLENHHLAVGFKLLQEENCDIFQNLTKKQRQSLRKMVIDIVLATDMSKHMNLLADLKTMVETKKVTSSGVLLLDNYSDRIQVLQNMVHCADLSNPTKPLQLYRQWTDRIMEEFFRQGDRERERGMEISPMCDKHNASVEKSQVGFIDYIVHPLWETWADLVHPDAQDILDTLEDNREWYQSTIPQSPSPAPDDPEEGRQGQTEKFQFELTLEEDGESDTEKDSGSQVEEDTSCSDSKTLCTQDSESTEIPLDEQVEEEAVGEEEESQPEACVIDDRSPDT
5-hydroxytryptamine receptor 2B, sequence (P41595 whole entry): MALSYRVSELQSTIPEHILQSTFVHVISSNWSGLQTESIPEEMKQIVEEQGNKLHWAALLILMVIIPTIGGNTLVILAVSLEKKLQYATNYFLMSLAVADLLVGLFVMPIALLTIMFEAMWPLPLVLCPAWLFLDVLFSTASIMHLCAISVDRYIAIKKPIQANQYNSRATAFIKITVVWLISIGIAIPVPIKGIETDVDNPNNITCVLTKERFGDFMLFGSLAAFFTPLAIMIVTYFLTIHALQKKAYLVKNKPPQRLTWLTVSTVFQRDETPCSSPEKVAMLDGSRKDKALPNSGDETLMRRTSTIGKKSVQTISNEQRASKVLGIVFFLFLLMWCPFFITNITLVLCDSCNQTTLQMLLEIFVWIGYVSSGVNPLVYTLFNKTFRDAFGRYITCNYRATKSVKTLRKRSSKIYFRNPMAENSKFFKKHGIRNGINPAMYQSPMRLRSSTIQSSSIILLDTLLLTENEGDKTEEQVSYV
Growth hormone secretagogue receptor type 1, sequence (Q92847 whole entry): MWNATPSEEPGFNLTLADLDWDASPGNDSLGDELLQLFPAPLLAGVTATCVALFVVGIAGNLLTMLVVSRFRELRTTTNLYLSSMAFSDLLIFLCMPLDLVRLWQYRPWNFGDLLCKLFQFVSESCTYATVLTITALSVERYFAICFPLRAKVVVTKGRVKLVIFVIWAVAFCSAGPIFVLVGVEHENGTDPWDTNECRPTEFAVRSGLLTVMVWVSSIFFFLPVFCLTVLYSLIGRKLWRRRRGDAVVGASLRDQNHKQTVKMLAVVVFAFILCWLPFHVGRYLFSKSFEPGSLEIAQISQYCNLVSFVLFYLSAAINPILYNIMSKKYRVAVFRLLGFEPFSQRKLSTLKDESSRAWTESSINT
Gamma-aminobutyric acid receptor subunit alpha-1, sequence (P62813 whole entry): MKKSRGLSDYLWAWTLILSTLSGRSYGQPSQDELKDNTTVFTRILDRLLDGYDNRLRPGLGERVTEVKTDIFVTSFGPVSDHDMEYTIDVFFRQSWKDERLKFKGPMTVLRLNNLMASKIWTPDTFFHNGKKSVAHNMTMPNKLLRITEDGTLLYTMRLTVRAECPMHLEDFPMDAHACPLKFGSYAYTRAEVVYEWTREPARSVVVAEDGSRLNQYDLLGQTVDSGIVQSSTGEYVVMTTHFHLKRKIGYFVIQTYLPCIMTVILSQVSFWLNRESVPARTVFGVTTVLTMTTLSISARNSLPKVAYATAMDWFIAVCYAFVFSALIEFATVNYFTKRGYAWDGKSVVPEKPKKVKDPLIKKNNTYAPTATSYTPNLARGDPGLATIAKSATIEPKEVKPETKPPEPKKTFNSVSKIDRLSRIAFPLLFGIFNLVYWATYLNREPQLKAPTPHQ
Delta-type opioid receptor, sequence (P41143 whole entry): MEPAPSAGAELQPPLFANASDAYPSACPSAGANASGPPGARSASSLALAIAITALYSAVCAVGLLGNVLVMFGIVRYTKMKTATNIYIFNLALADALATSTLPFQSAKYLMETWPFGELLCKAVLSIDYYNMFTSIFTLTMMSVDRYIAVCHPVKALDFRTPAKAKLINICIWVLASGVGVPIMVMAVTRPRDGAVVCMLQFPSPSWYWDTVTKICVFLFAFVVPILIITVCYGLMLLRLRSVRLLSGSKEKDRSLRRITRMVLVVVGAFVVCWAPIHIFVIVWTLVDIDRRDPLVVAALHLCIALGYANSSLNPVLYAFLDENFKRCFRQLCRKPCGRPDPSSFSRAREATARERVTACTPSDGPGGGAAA

Turning to `CCOCC(O)COc1ccc(NC(=O)CC[S+](C)C)cc1` (stereo not given), the AC50 in test [1], in test [2], in test [3], in test [4], in test [5] and in test [6] was greater than 30 µM each time. Besides, the AC50 in test [7], in test [8], in test [9] and in [10] was greater than 30 µM in each case.

Take `CCOC(=O)[C@H](CCc1ccccc1)N[C@@H](C)C(=O)N1Cc2ccccc2C[C@H]1C(=O)O`: the AC50 in test [1] is greater than 10 µM; in [2], greater than 10 µM; in test [3] it was greater than 30 µM; in test [4], greater than 10 µM; in [5] it was greater than 30 µM; in [6] it was greater than 10 µM. In addition, the AC50 in [7], in test [8], in test [9] and in test [10] was greater than 10 µM throughout.

Turning to `CCC[C@@]1(CCc2ccccc2)CC(O)=C([C@H](CC)c2cccc(NS(=O)(=O)c3ccc(C(F)(F)F)cn3)c2)C(=O)O1`, the AC50 in [1] is 7.5 µM; in test [2], 16 µM; in [3] it was 5.8 µM; in test [4], greater than 30 µM; in test [5] it was greater than 30 µM; in test [6], greater than 30 µM. In addition, the AC50 is greater than 30 µM in test [7], greater than 30 µM in [8], 25 µM in [9] and 29 µM in [10].

For `O=C(O)COC(=O)Cc1ccccc1Nc1c(Cl)cccc1Cl` [ACECLOFENAC], the AC50 in test [1] was greater than 10 µM; in [2], greater than 30 µM; in test [3], greater than 30 µM; in test [4], greater than 30 µM; in test [5], greater than 30 µM; in [6], greater than 10 µM. The AC50 was greater than 30 µM in [7], greater than 10 µM in test [8], greater than 10 µM in test [9] and greater than 30 µM in [10].

Take `CN(C)CCc1c[nH]c2ccc(CS(=O)(=O)N3CCCC3)cc12` [ALMOTRIPTAN]: the AC50 in test [1], in test [2], in test [3], in [4], in test [5] and in [6] was greater than 30 µM in each case. Moreover, the AC50 in test [7], in test [8], in [9] and in test [10] was greater than 30 µM throughout.

For the compound `CC[N+](CC)(CCNC(=O)C(=O)NCC[N+](CC)(CC)Cc1ccccc1Cl)Cc1ccccc1Cl` [AMBENONIUM], the AC50 in test [1], in test [2], in test [3], in [4], in test [5] and in test [6] was greater than 30 µM in each case. For the same compound, the AC50 in [7] was greater than 30 µM; in test [8], greater than 30 µM; in test [9] it was 2.5 µM; in [10], greater than 30 µM.

In the case of `NCCCNCCSP(=O)(O)O` [AMIFOSTINE], the AC50 in [1], in [2], in test [3], in test [4], in test [5] and in [6] was greater than 30 µM in each case. The AC50 in test [7], in [8], in [9] and in test [10] was greater than 30 µM each time.

Regarding `NCCCCCC(=O)O` [AMINOCAPROIC ACID], the AC50 in test [1] was greater than 10 µM; in test [2], greater than 30 µM; in test [3] it was greater than 10 µM; in test [4], greater than 30 µM; in test [5], greater than 10 µM; in test [6], greater than 10 µM. The AC50 in test [7] was greater than 30 µM; in test [8] it was greater than 10 µM; in test [9], greater than 10 µM; in [10] it was greater than 30 µM.

On to `Cn1cnc2c(F)c(Nc3ccc(Br)cc3F)c(C(=O)NOCCO)cc21` [BINIMETINIB], for which the AC50 in test [1], in test [2], in test [3], in test [4], in test [5] and in [6] was greater than 30 µM each time. For the same compound, the half-maximal activity concentration (AC50) in [7], in [8], in test [9] and in test [10] was greater than 30 µM throughout.

As for `CC(C)C[C@H](NC(=O)[C@H](Cc1ccccc1)NC(=O)c1cnccn1)B(O)O` [BORTEZOMIB], the AC50 in test [1], in test [2], in [3], in [4], in test [5] and in [6] was greater than 30 µM each time. Also, the AC50 in [7], in test [8], in test [9] and in test [10] was greater than 30 µM each time.

Turning to `C[C@H](CS)C(=O)N1CCC[C@H]1C(=O)O` [CAPTOPRIL], the AC50 was greater than 10 µM in [1]; greater than 30 µM in [2]; greater than 30 µM in [3]; greater than 30 µM in [4]; greater than 30 µM in [5]; greater than 10 µM in test [6]. Moreover, the AC50 in test [7] was greater than 30 µM; in [8] it was greater than 10 µM; in test [9] it was greater than 10 µM; in test [10] it was greater than 30 µM.

With `CN(C)CCOC(c1ccc(Cl)cc1)c1ccccn1` (stereo not given) [CARBINOXAMINE], the concentration at half-maximal activity (AC50) in [1], in [2], in [3], in [4], in test [5] and in [6] was greater than 30 µM each time. Further, the AC50 in [7], in test [8], in [9] and in [10] was greater than 30 µM each time.

What is called AC50 is the concentration giving half of the maximal activity seen. Read a low AC50 as greater potency.
